From patent US5308843A, “Method of inhibiting mammalian topoisomerase II and malignant cell growth in mammals, with substituted (S)-3-methyl-7-oxo-2,3-dihydro-7H-pyrido[1,2,3-de][1,4 ]-benzoxazine(and-benzothiazine)-6-carboxylic acids” (Sterling Drug Inc., priority 1990, dated 1994)
“Also recorded” adds a separate entry of the source.

What was measured:
[1] = tested on: colon adenocarcinoma No. 38; test: In vivo antitumor assay, colon adenocarcinoma No. 38 (SC); design: species or system mice
Description: (§1) In vivo Antitumor Assay Procedure
(§2) Mice: Inbred: C3H/He; and Hybrids: B6D2F1 (C57BL/6 females×DBA/2 males), CD2F1 (Balb/c females×DBA/2 males) and B6C3F1 (C57BL/6×C3H) were bred at Wayne State University from strains obtained from the Frederick Cancer Research Facility, Frederick, Md. or from commercial suppliers.
(§3) Tumors: Murine Tumors: P388 leukemia and the following transplantable solid tumors of mice were used for in vivo testing: B16 melanoma, pancreatic ductal adenocarcinoma No. 03, colon adenocarcinoma No. 38 and mammary ductal adenocarcinoma No. 16/C. All tumors are in the Developmental Therapeutics Program frozen tumor repository, maintained by the Biological Testing Branch, Frederick, Md. Each has a detailed description, code identification number, and list of references at the National Tumor Repository. Tumors were maintained in the mouse strain of origin and were transplanted in the appropriate F1 hybrid (or the strain of origin) for therapy trials. The mice were supplied food and water ad libitum.
(§4) Chemotherapy: For pancreatic ductal adenocarcinoma No. 03, colon adenocarcinoma No. 38, and mammary ductal adenocarcinoma No. 16, the following methods were used to help ensure a more uniform tumor burden per mouse (thus reducing the requirement for greater numbers of mice per group), bilateral tumor implants were used. The animals necessary to begin an experiment were pooled, implanted bilaterally s.c. on day zero with 30-60-mg tumor fragments using a 12-gauge trocar, and again pooled before randomization to the various treatment and control groups. Chemotherapy was started within three days after tumor implantation while the number of cells per mouse was relatively small (1×10^7 -1×10^8 cells).
(§5) End Points for Assessing Antitumor Activity: Quantitative end points used to assess antitumor activity included % Increased Life Span (% ILS), Tumor Cell Kill (Log10 kill), and Tumor Growth Inhibition (T/C). Long Term Survivors (45 or 60 day) were excluded from calculations of % ILS and Tumor Cell Kill.
(§6) Endpoints were calculated as follows: [formula] where Dt is the median day of death for treated and Dc is the median day of death for control groups.
(§7) T/C Value: Tumors were measured with a caliper once or twice weekly (as needed) until either tumors exceeded 1600 mg or cure was assured. Tumor weights were estimated from two-dimensional measurements: Tumor Weight (mg)=(a×b^2)/2, where a and b are the tumor length and width (mm), respectively. Measurements were carried out simultaneously in both the treatment and control groups. When the control group tumors reached approximately 750-1500 mg in size (median of group), the median tumor weight of each group was determined (including zeros). The T/C value in percent is an indication of antitumor effectiveness. […]. […]

[2] = as above; design: species or system mice; settings: mouse, in vivo; Colon 38 (SC); drug SC; QD3-9; read-out: Maximum Tolerated Total Dose
Description: as §1, §2, §3, §4, §5, §6, §7

human topoisomerase II = target: T1, human topoisomerase II (Homo sapiens, UniProt P11388); test: Mammalian (human) topoisomerase II inhibition assay: topo II-DNA complex stabilisation; format: biochemical; settings: concentration with activity equal to the EC50 of reference mAMSA; 20 min at 37° C.
T1 construct: Topo II was purified from late log phase suspension cultures of HeLa WIS; endogenous in cells; host or cells: HeLa WIS (late log phase suspension cultures); native enzyme purified in house
Description: Mammalian Topoisomerase II Inhibition Assay Procedure
The inhibition of human topoisomerase II (hereafter topo II) was quantitated by a procedure adapted from that described by Trask et al., EMBO J., 3, 671-676 (1984). The assay quantitates the amount of topo II covalently complexed by DNA at equilibrium during a topo II reaction. This assay determines the potential of a compound to stabilize this complex, which potential is closely related to the cytotoxicity of the compound.
Topo II was purified from late log phase suspension cultures of HeLa WIS by an adaption of the method described by Per et al., Mol. Pharmacol., 32, 17-25 (1987).
Assays (in duplicate) were assembled at 4° C. Assay mix (25 μl) was distributed in Beckman (No. 265270) 1.5 ml microtitre tubes followed by the addition of 5 μl test compound to yield the final concentrations of assay components:
4 ng 3' end labeled (32p) pBR322 DNA (10^7 DPM/μg)
The assay mix including the test compound was incubated for 20 minutes at 37° C. The reaction was terminated at 37° C. by the addition of 3 μl 10% SDS followed by the addition of 266 μl 10 mM Tris-Cl pH 7.5, 20 μg/ml BSA, 20 μg/ml calf thymus DNA, 1% SDS.
A SDS/protein precipitate was formed by the addition of 28 μl 2.5M KCl followed by chilling on ice for a minimum of 10 minutes. The precipitate was collected and washed with a Brandell cell harvester on a GFB glass fiber filter membrane as follows. The contents of the assay tube were drawn up into the harvester. The tube was then rinsed 7× with 10 mM Tris-Cl pH 7.5, 1 mM EDTA and 100 mM KCl. The precipitate was washed with 1 L of a solution of 10 mM Tris-Cl pH 7.5, 1 mM EDTA, 100 mM KCl followed by 1 L of 95% ethyl alcohol and finally 0.5 L 70% of ethyl alcohol (per 48 samples in each case). After drying, CPM was determined by liquid scintillation counting with 5 ml Biofluor (NEN Research Products) or Readisafe (Beckman Instruments Inc.) cocktail.
Preparation of test compound--A stock solution (6 mg/ml) of test compound was prepared either in 0.1N sodium hydroxide or 0.2N hydrogen chloride. This solution then was diluted 1/5 into water and serially thereafter in either 0.02N sodium hydroxide or 0.04N hydrogen chloride, respectively. The stock solution and serial dilution of the test compound was stored at -20° C. prior to testing.
Screening of test compound--As an initial screen, the test compound was tested at a final concentration of 2, 20 and 200 μg/ml.
Controls--A solvent control which indicates the base level of topo II-DNA complex formed in the absence of the test compound was included in each test. A control, in which topo II was omitted, was included for each test compound at the highest drug concentration tested.
Reference agent--A dose response curve with mAMSA at 0.01, 0.08, 0.16, 0.32, 1.0 and 10 μg/ml was included in each test.
Data reduction--The EC50 (effective concentration at which 50% of the maximal DNA-topo II complex is formed) of a test compound is defined to be the concentration with activity equal to the EC50 of the reference agent, mAMSA. The maximal DNA-topo II complex formed is taken as that equal to that formed at the nearly saturating dose of mAMSA (10 μg/ml).

T1 sequence (P11388 whole entry): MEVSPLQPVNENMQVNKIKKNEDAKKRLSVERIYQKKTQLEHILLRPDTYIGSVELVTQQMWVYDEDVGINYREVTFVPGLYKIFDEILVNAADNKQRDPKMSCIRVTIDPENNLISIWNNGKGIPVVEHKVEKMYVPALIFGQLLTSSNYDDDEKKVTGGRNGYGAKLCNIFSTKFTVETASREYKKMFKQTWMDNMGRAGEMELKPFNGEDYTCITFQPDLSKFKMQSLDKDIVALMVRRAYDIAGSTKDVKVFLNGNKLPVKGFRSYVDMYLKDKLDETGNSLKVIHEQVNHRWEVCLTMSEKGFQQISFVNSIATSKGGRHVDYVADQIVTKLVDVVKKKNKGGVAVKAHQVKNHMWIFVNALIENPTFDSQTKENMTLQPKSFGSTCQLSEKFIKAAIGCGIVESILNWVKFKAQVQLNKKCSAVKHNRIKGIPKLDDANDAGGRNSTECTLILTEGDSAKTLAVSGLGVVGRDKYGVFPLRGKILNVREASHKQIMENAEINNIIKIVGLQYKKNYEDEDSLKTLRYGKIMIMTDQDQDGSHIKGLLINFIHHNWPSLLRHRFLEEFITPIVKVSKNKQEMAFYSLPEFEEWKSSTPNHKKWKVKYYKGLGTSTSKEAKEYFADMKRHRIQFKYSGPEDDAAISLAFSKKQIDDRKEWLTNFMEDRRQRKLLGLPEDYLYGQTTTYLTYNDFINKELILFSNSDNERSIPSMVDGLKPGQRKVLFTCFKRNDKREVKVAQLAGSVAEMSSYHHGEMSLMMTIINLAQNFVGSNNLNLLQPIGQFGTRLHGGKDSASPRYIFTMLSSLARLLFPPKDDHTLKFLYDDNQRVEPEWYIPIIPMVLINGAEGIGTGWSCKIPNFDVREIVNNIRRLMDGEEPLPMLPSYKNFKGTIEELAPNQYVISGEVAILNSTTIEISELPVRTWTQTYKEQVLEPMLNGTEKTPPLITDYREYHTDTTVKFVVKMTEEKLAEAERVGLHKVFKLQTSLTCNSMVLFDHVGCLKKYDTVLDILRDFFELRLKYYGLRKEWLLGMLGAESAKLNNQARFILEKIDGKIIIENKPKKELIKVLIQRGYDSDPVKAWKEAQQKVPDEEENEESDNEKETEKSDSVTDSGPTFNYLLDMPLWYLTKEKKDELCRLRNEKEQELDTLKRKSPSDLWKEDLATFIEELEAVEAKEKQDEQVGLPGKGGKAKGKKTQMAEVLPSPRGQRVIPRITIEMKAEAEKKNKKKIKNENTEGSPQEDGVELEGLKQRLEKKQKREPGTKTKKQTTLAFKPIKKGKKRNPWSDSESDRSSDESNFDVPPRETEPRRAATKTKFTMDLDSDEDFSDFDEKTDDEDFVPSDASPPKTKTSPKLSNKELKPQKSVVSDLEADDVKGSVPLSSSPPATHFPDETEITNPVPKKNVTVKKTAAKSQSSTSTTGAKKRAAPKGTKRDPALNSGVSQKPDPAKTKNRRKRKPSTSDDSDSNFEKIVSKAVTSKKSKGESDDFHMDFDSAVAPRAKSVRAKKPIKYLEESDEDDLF

## Cc1cc(-c2c(F)cc3c(=O)c(C(=O)O)cn4c3c2SC[C@@H]4C)cc(C)n1 [Example 5, (S)-10-(2,6-Dimethyl-4-pyridinyl)-9-fluoro-3-methyl-7-oxo-2,3-dihydro-7H-pyrido[1,2,3-de][1,4]benzothiazine-6-carboxylic acid]
[1]; Colon 38 (SC), drug SC, QD3-9, 504 mg/kg total, footnote 4: Cure, no tumor evident, day 119
  Long Term Survivors: 1/5
[1]; Colon 38 (SC), drug SC, QD3-9, at maximum tolerated total dose 504 mg/kg
  % T/C: 0%
[1]; Colon Adenocarcinoma 38
  antitumor activity (in words): Cure; no tumor evident; day 119; also recorded: clearly active; also recorded: highly active
[2]
  MTD: 504 mg/kg
Human topoisomerase II
  EC50: 9.4 µM
